The text below walks through data of ChEMBL document CHEMBL5665440, “ASAP - In vitro liver microsomal stability” (2024).

What is called half-life is the time in which the quantity being followed falls by half. Read a low half-life as rapid decline. A word on the microsomal CLint: it is a measure of how fast metabolising enzymes remove a compound, apart from limits set by blood flow. Low readings indicate greater metabolic stability, high ones faster metabolism.

Series [1] is described as follows: Human liver microsomal stability of compound in microsomal protein, PBS buffer pH 7.4, NADPH, glucose-6-phosphate and glucose-6-phosphate dehydrogenase media. Aliquotes were taken at 5 time points and after stopping the reaction, supernatants were analyzed using HPLC coupled with a tandem mass spectrometer. The elimination constant, half-life, and intrinsic clearance are determined as results using linear regression analysis. In kind it is ADME, microsomes, Microsome. The note with it: for half-life / microsomal CLint: liver microsomes; for Remaining / Remaining (without cofactor) / CLint / T1/2: microsomes. A general note: Liver microsomes are vesicles of endoplasmic reticulum, rich in cytochrome P450 enzymes.

A short description of series [2]: Mouse liver microsomal stability of compound in microsomal protein, PBS buffer pH 7.4, NADPH, glucose-6-phosphate and glucose-6-phosphate dehydrogenase media. Aliquotes were taken at 5 time points and after stopping the reaction, supernatants were analyzed using HPLC coupled with a tandem mass spectrometer. The elimination constant, half-life, and intrinsic clearance are determined as results using linear regression analysis. The class given is ADME, microsomes, Microsome. The note with it: for half-life / microsomal CLint: liver microsomes; for Remaining / Remaining (without cofactor) / CLint / T1/2: microsomes.

“And” between values parts separate entries of the source, which are not always exact repeats. Equal values may be shown once.
Wherever Remaining (without cofactor) is given: time not given here.
Wherever Remaining is given: time not given here.

Consider `O=C(NCC(F)F)[C@H](Nc1ccc2c(c1)CNC2)c1cc(Cl)cc(C2CC2)c1`, for which, in series [1], the half-life was > 2.89 h; the microsomal CLint was < 10 µL/min/mg; the Remaining is 87.774% and 93.401% and 87.317% and 91.082%; the “Remaining (without cofactor)” value was 101.867% and 96.07% and 104.631% and 112.978%. Also, in series [2], the half-life is > 2.89 h; the microsomal CLint was < 10 µL/min/mg; the Remaining is 90.622% and 93.184%; the “Remaining (without cofactor)” value was 90.232% and 99.155%.

With `O=C1Cc2c(cccc2C(=O)Nc2ccc3c(c2)CNC3)N1`, in series [1], the half-life was > 2.89 h, the microsomal CLint is < 10 µL/min/mg, the Remaining is 90.707% and the “Remaining (without cofactor)” value is on record as 85.739%. For the same compound, in series [2], the half-life was > 2.89 h, the microsomal CLint is < 10 µL/min/mg, the Remaining is 102.559% and the “Remaining (without cofactor)” value is given as 103.618%.

For the compound `O=C(Nc1ccc2c(c1)CNC2)c1cc(Br)cc2[nH]c(-c3ccccc3)nc12`, in series [1], the half-life stood at 2.18 h, the microsomal CLint turned out to be 12.8 µL/min/mg, the Remaining is 80.427% and the “Remaining (without cofactor)” value is reported as 94.891%. In addition, in series [2], the half-life stood at 0.636 h, the microsomal CLint stood at 43.8 µL/min/mg, the Remaining is on record as 49.173% and the “Remaining (without cofactor)” value is recorded as 86.086%.

Regarding `O=C(Nc1ccc2c(c1)CNC2)c1cc(F)cc2[nH]ncc12`, in series [1], the half-life was > 2.89 h, the microsomal CLint was < 10 µL/min/mg, the Remaining was 86.703% and the “Remaining (without cofactor)” value was 98.509%. For the same compound, in series [2], the half-life amounted to 0.154 h, the microsomal CLint was determined as 180 µL/min/mg, the Remaining is given as 5.066% and the “Remaining (without cofactor)” value is 103.462%.

For `O=C(Nc1ccc2c(c1)CNC2)c1cc(Cl)cc2ccncc12`, in series [1], the half-life was > 2.89 h, the microsomal CLint was < 10 µL/min/mg, the Remaining came to 107.799% and the “Remaining (without cofactor)” value amounted to 101.944%. In series [2], the half-life was determined as 1.14 h, the microsomal CLint was 24.5 µL/min/mg, the Remaining is 67.731% and the “Remaining (without cofactor)” value stood at 99.51%.

As to `CCCC[C@@H](NC(=O)OC(C)(C)C)C(=O)N[C@@H](C(=O)NCc1ccc(CN)cc1)c1ccc(OCc2ccccc2)cc1`, in series [1], the half-life was determined as 0.497 h, the microsomal CLint is 56 µL/min/mg, the Remaining amounted to 40.588% and the “Remaining (without cofactor)” value is recorded as 99.499%. Moreover, in series [2], the half-life was 3.11 h, the microsomal CLint was determined as 7.44 µL/min/mg, the Remaining amounted to 87.681% and the “Remaining (without cofactor)” value was found to be 94.521%.

In the case of `O=C(Nc1ccc2c(c1)CNC2)c1cc(F)cc(-c2cn[nH]c2)c1`, in series [1], the half-life worked out at 0.79 h; the microsomal CLint is 35.2 µL/min/mg; the CLint amounted to 36.323 µL/min/mg; the Remaining is 55.679% and 55.059%. Also, in series [1], the “Remaining (without cofactor)” value is 98.537% and 92.131%; the T1/2 is 0.76638 h. For the same compound, in series [2], the half-life stood at 0.051 h; the microsomal CLint turned out to be 545 µL/min/mg; the CLint was 553.458 µL/min/mg; the Remaining was 0.198% and 0.909%. Besides, in series [2], the “Remaining (without cofactor)” value was 96.471% and 97.807%; the T1/2 is recorded as 3.018 min.

For the compound `O=C(Nc1ccc2c(c1)CNC2)c1cc(Cl)cc2cn[nH]c12`, in series [1], the half-life was > 2.89 h, the microsomal CLint is < 10 µL/min/mg, the Remaining is recorded as 105.314% and the “Remaining (without cofactor)” value is given as 104.393%. Moreover, in series [2], the half-life came out at 0.516 h, the microsomal CLint was 54 µL/min/mg, the Remaining is 41.728% and the “Remaining (without cofactor)” value amounted to 98.046%.

For `O=C(Nc1ccc2c(c1)CNC2)c1cc(Cl)cc2[nH]ncc12`, in series [1], the half-life is > 2.89 h, the microsomal CLint was < 10 µL/min/mg, the Remaining worked out at 87.652% and the “Remaining (without cofactor)” value is given as 96.46%. In series [2], the half-life amounted to 0.115 h, the microsomal CLint came out at 243 µL/min/mg, the Remaining is given as 1.932% and the “Remaining (without cofactor)” value stood at 102.129%.

Turning to `CNC(=O)[C@H](Nc1ccc2c(c1)CNC2)c1cc(Cl)cc2[nH]c(-c3ccccc3)nc12`, in series [1], the half-life was > 2.89 h, the microsomal CLint was < 10 µL/min/mg, the Remaining was 91.331% and the “Remaining (without cofactor)” value is recorded as 107.659%. In series [2], the half-life was > 2.89 h, the microsomal CLint is < 10 µL/min/mg, the Remaining was 95.033% and the “Remaining (without cofactor)” value came to 94.186%.

Turning to `NCc1cccc(NC(=O)C[C@H](NC(=O)OCc2ccccc2)c2ccc(OCc3ccccc3)c(Br)c2)c1`, in series [1], the half-life was found to be 2.25 h, the microsomal CLint was found to be 12.4 µL/min/mg, the Remaining was 79.862% and the “Remaining (without cofactor)” value worked out at 98.099%. For the same compound, in series [2], the half-life was > 2.89 h, the microsomal CLint was < 10 µL/min/mg, the Remaining was found to be 98.216% and the “Remaining (without cofactor)” value came out at 98.077%.

As to `NCc1cccc(CNC(=O)[C@@H](NC(=O)OCc2ccccc2)c2ccc(OCc3ccccc3)cc2)c1`, in series [1], the half-life stood at 7.17 h, the microsomal CLint came out at 3.88 µL/min/mg, the Remaining came out at 94.901% and the “Remaining (without cofactor)” value came to 89.996%. For the same compound, in series [2], the half-life amounted to 8.46 h, the microsomal CLint is 2.73 µL/min/mg, the Remaining worked out at 103.125% and the “Remaining (without cofactor)” value was found to be 96.808%.

Take `N#Cc1cc2c(cc1NC(=O)c1cc(F)cc3[nH]ncc13)CNC2`: in series [1], the half-life is > 2.89 h; the microsomal CLint is < 10 µL/min/mg; the CLint turned out to be 16.74 µL/min/mg; the Remaining is 85.714% and 76.558%. Besides, in series [1], the “Remaining (without cofactor)” value was 101.075% and 93.161%; the T1/2 worked out at 1.6629 h. In series [2], the half-life amounted to 0.0957 h; the microsomal CLint was determined as 291 µL/min/mg; the CLint came out at 288.453 µL/min/mg; the Remaining was 0.854% and 0.916%. Also, in series [2], the “Remaining (without cofactor)” value is 97.455% and 90.578%; the T1/2 is listed as 5.79 min.

Turning to `O=C(Nc1cc2c(cc1C1CC1)CNC2)c1cc(F)cc2[nH]ncc12`, in series [1], the half-life was > 2.89 h, the microsomal CLint is < 10 µL/min/mg, the Remaining came out at 104.365% and the “Remaining (without cofactor)” value is reported as 104.155%. In series [2], the half-life turned out to be 0.321 h, the microsomal CLint was determined as 86.8 µL/min/mg, the Remaining was 23.262% and the “Remaining (without cofactor)” value is 95.024%.

For the compound `Cn1c(=O)[nH]c2c(C(=O)Nc3ccc4c(c3)CNC4)cc(Br)cc21`, in series [1], the half-life is > 2.89 h, the microsomal CLint is < 10 µL/min/mg, the Remaining is 97.872% and the “Remaining (without cofactor)” value is given as 85.479%. Moreover, in series [2], the half-life amounted to 2.23 h, the microsomal CLint was determined as 12.5 µL/min/mg, the Remaining is given as 78.028% and the “Remaining (without cofactor)” value came out at 113.254%.

On to `O=C(Nc1ccc2c(c1)CNC2)c1cc(F)cc2c1CCC2`, for which, in series [1], the half-life is > 2.89 h, the microsomal CLint is < 10 µL/min/mg, the Remaining came out at 95.811% and the “Remaining (without cofactor)” value is given as 102.779%. In addition, in series [2], the half-life was determined as 0.745 h, the microsomal CLint was found to be 37.4 µL/min/mg, the Remaining was determined as 53.571% and the “Remaining (without cofactor)” value was 103.66%.

`O=C(Nc1ccc2c(c1)CNC2)c1cc(F)cc2[nH]c(-c3ccc(F)cc3)nc12`: in series [1], the half-life was > 2.89 h, the microsomal CLint was < 10 µL/min/mg, the Remaining is 90% and the “Remaining (without cofactor)” value is recorded as 94.287%. In series [2], the half-life amounted to 0.756 h, the microsomal CLint turned out to be 36.8 µL/min/mg, the Remaining was found to be 54.776% and the “Remaining (without cofactor)” value is listed as 103.385%.

For `CC(C)n1cc2c(C(=O)Nc3ccc4c(c3)CNC4)cc(Cl)cc2n1`, in series [1], the half-life was > 2.89 h, the microsomal CLint was < 10 µL/min/mg, the Remaining turned out to be 96.618% and the “Remaining (without cofactor)” value came to 96.957%. Besides, in series [2], the half-life is > 2.89 h, the microsomal CLint was < 10 µL/min/mg, the Remaining was found to be 89.02% and the “Remaining (without cofactor)” value is recorded as 93.513%.

Regarding `CNC(=O)c1cc(Cl)c(F)cc1NS(=O)(=O)c1ccc(Oc2ccccc2Cl)cc1`, in series [1], the half-life was 0.39 h, the intrinsic metabolic clearance (microsomal CLint) was 71.3 µL/min/mg, the Remaining was determined as 32.8% and the “Remaining (without cofactor)” value was found to be 112.27%. In series [2], the half-life amounted to 0.506 h, the microsomal CLint was 45.6 µL/min/mg, the Remaining is recorded as 39.045% and the “Remaining (without cofactor)” value came out at 100.041%.

As for `O=C(Nc1cc2c(cc1Br)CNC2)c1cc(F)cc2[nH]ncc12`, in series [1], the half-life stood at 2.44 h, the microsomal CLint was determined as 11.4 µL/min/mg, the Remaining came out at 83.663% and the “Remaining (without cofactor)” value stood at 98.81%. Further, in series [2], the half-life was found to be 0.093 h, the microsomal CLint was 299 µL/min/mg, the Remaining worked out at 0.737% and the “Remaining (without cofactor)” value is recorded as 95.151%.

Regarding `O=C(Nc1cc2c(c(C3=CCOCC3)c1)CNC2)c1cc(F)cc2[nH]ncc12`, in series [1], the half-life is > 2.89 h, the microsomal CLint is < 10 µL/min/mg, the Remaining came to 90.19% and the “Remaining (without cofactor)” value was determined as 105.644%. Besides, in series [2], the half-life is 0.184 h, the microsomal CLint worked out at 152 µL/min/mg, the Remaining came out at 8.587% and the “Remaining (without cofactor)” value was 96.063%.
